One block for each compound: values may come before it. Active and inactive are the calls of the source. No cut-off for these calls is given here.
Experiments:
[1] = system: Saccharomyces cerevisiae; experiment: Antimicrobial activity against Saccharomyces cerevisiae BY4741 assessed as inhibition of microbial growth at 60 mM at pH 6 in presence of glucose measured after 48 hrs by visual analysis; type: functional, organism-based
[2] = system: Saccharomyces cerevisiae; experiment: Ratio of antimicrobial activity against Saccharomyces cerevisiae BY4741 at pH 7 to antimicrobial activity against Saccharomyces cerevisiae BY4741 at pH 8; type: functional
[3] = system: Saccharomyces cerevisiae; experiment: Antimicrobial activity against Saccharomyces cerevisiae BY4741 assessed as inhibition of microbial growth at pH 7 in presence of glucose measured after 48 hrs by visual analysis; type: functional
[4] = system: Saccharomyces cerevisiae; experiment: Antimicrobial activity against Saccharomyces cerevisiae BY4741 assessed as inhibition of microbial growth at pH 8 in presence of glucose measured after 48 hrs by visual analysis; type: functional
[5] = system: Saccharomyces cerevisiae; experiment: Antimicrobial activity against saccharomyces cerevisiae BY4741 assessed as inhibition of translation initiation by measuring polysme/monosome ratio at 1.5 mM at pH 7.5 incubated for 30 mins in presence of 8% glucose by polysome analysis (Rvb= 1.94); type: functional; settings: 0.5 h
[6] = system: Saccharomyces cerevisiae; experiment: Antimicrobial activity against Saccharomyces cerevisiae BY4741 assessed as inhibition of microbial growth at 50 mM at pH 5 in presence of glucose measured after 48 hrs by visual analysis; type: functional, organism-based
[7] = system: Cell membrane; experiment: Induction of membrane disruption in Saccharomyces cerevisiae BY4741 assessed as cell lysis by measuring increase in extracellular ATP level at pH 7.5 in presence of 8% glucose incubated for 30 mins
[8] = system: Cell membrane; experiment: Induction of membrane disruption in Saccharomyces cerevisiae BY4741 at 50 mM incubated for 2 hrs by FM4-64 staining based analysis; type: subcellular
[9] = system: Saccharomyces cerevisiae; experiment: Inhibition HXT2 in Saccharomyces cerevisiae using 2DG as substrate assessed as reduction in 2DG uptake by measuring Km at 0.2 mM at pH 7.5 by Michaelis-Menten analysis (Rvb=0.76 +/- 0.08 mM)
[10] = system: Saccharomyces cerevisiae; experiment: Inhibition HXT2 in Saccharomyces cerevisiae using 2DG as substrate assessed as reduction in 2DG uptake by measuring Km at 0.6 mM at pH 7.5 by Michaelis-Menten analysis (Rvb= 0.76 +/- 0.08 mM)
[11] = system: Saccharomyces cerevisiae; experiment: Inhibition of endocytosis in Saccharomyces cerevisiae BY4741 from plasma to vacuoles assessed as formation of discrete granules at 25 mM incubated for 2 hrs by FM4-64 staining based analysis; type: functional, organism-based
[12] = system: Saccharomyces cerevisiae; experiment: Ratio of antimicrobial activity against Saccharomyces cerevisiae BY4741 at pH 6 to antimicrobial activity against Saccharomyces cerevisiae BY4741 at pH 8; type: functional
[13] = system: Saccharomyces cerevisiae; experiment: Antimicrobial activity against saccharomyces cerevisiae BY4741 assessed as inhibition of translation initiation by measuring polysme/monosome ratio at 1.5 mM at pH 7.5 incubated for 30 mins in presence of 2% glucose by polysome analysis (Rvb= 1.74); type: functional; settings: 0.5 h
[14] = system: Saccharomyces cerevisiae; experiment: Inhibition HXT2 in Saccharomyces cerevisiae using 2DG as substrate assessed as reduction in 2DG uptake by measuring decrease in Vmax at 0.6 mM at pH 7.5 by Michaelis-Menten analysis (Rvb= 208 +/- 7 nmol/min)
[15] = system: Saccharomyces cerevisiae; experiment: Antimicrobial activity against Saccharomyces cerevisiae BY4741 assessed as inhibition of microbial growth at pH 6 in presence of glucose measured after 48 hrs by visual analysis; type: functional
[16] = Inhibition of actin polarization in Saccharomyces cerevisiae BY4741 at pH 7.5 incubated for 30 mins in presence of 2% glucose by rhodamine phalloidin staining based confocal microscopic analysis
[17] = Inhibition HXT2 in Saccharomyces cerevisiae using 2DG as substrate assessed as reduction in 2DG uptake at pH 7.5 preincubated for 10 min followed by substrate addition and measured after 10 min by glucose uptake-Glo assay
[18] = system: Saccharomyces cerevisiae; experiment: Inhibition HXT2 in Saccharomyces cerevisiae using 2DG as substrate assessed as reduction in 2DG uptake by measuring decrease in Vmax at 0.2 mM at pH 7.5 by Michaelis-Menten analysis (Rvb= 208 +/- 7 nmol/min)
[19] = system: Saccharomyces cerevisiae BY4741; experiment: Inhibition of actin polarization in Saccharomyces cerevisiae BY4741 at pH 6 incubated for 30 mins in presence of 2% glucose by rhodamine phalloidin staining based confocal microscopic analysis
[20] = Inhibition HXT2 in Saccharomyces cerevisiae using 2DG as substrate assessed as inhibition of 2DG uptake at pH 6 preincubated for 10 min followed by substrate addition and measured after 10 min by glucose uptake-Glo assay
[21] = Inhibition of actin polarization in Saccharomyces cerevisiae BY4741 at pH 7.5 incubated for 30 mins in presence of 8% glucose by rhodamine phalloidin staining based confocal microscopic analysis
[22] = system: Cell membrane; experiment: Induction of membrane disruption in Saccharomyces cerevisiae BY4741 assessed as cell lysis by measuring increase in extracellular ATP level at pH 7.5 in presence of 2% glucose incubated for 30 mins
[23] = system: Saccharomyces cerevisiae; experiment: Inhibition HXT2 in Saccharomyces cerevisiae using 2DG as substrate assessed as reduction in 2DG uptake by measuring decrease in Vmax at 75 uM at pH 7.5 by Michaelis-Menten analysis (Rvb= 211 +/- 9 nmol/min)
[24] = system: Saccharomyces cerevisiae; experiment: Inhibition HXT2 in Saccharomyces cerevisiae using 2DG as substrate assessed as reduction in 2DG uptake by measuring Km at 125 uM at pH 7.5 by Michaelis-Menten analysis (Rvb= 0.76 +/- 0.03 mM)
[25] = system: Saccharomyces cerevisiae; experiment: Inhibition HXT2 in Saccharomyces cerevisiae using 2DG as substrate assessed as reduction in 2DG uptake by measuring Km at 75 uM at pH 7.5 by Michaelis-Menten analysis (Rvb= 0.76 +/- 0.03 mM)
[26] = system: Saccharomyces cerevisiae; experiment: Inhibition HXT2 in Saccharomyces cerevisiae using 2DG as substrate assessed as reduction in 2DG uptake by measuring decrease in Vmax at 125 uM at pH 7.5 by Michaelis-Menten analysis (Rvb= 211 +/- 9 nmol/min)

MIC [3]: 15000 µM | MIC [4]: 520 µM
SMILES: CCN(CC)CCCC(C)Nc1ccnc2cc(Cl)ccc12 (stereo unspecified) [CHLOROQUINE]
Activity [1]: inactive | Ratio [2]: 30

Activity [7]: 37 mM | Activity [8]: Active | Km [9]: 770 µM | Km [10]: 750 µM | Vmax [14]: 113 nmol/min | MIC [15]: 50000 µM | IC50 [16]: 1000 µM | IC50 [17]: 370 µM | MIC [3]: 2.5 µM | Vmax [18]: 158 nmol/min | inhibition [19]: inactive | IC50 [20]: 3490 µM | MIC [4]: 83 µM | IC50 [21]: 1600 µM | Activity [22]: 21.6 mM
SMILES: CCN(CC)CCCC(C)Nc1c2ccc(Cl)cc2nc2ccc(OC)cc12 (stereo unspecified) [QUINACRINE]
Ratio [5]: 1.69 | Activity [6]: inactive | inhibition [11]: Active | Ratio [12]: 600 | Ratio [2]: 30 | Ratio [13]: 1.53

Vmax [23]: 126 nmol/min | Km [24]: 710 µM | Km [25]: 630 µM | Vmax [26]: 63 nmol/min | MIC [15]: 250 µM | IC50 [17]: 115 µM | MIC [3]: 31 µM | IC50 [20]: 259 µM | MIC [4]: 15 µM
SMILES: CN(C)CCCN1c2ccccc2Sc2ccc(Cl)cc21 [CHLORPROMAZINE]
Ratio [12]: 16 | Ratio [2]: 2

From ChEMBL document CHEMBL5036307, “Antimalarial Quinacrine and Chloroquine Lose Their Activity by Decreasing Cationic Amphiphilic Structure with a Slight Decrease in pH” (J Med Chem, 2021)
